Assay results reported in patent publication US9238656B2, “Imidazo[4,5-b]pyridine derivatives as ALK and JAK modulators for the treatment of proliferative disorders” (priority 2012, dated 2016).
Structures can show the parent of a compound that is named as a salt.

What was measured:
[1] = target: baculovirus-expressed JAK2 kinase (Homo sapiens, UniProt O60674); assay: biochemical; conditions: 0.2 μM ATP; read-out: JAK2 Potency
Outline: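 IC50 derived by variable-slope sigmoidal fit of percent inhibition against log compound concentration. Baculovirus-expressed JAK2 (15 ng/mL) phosphorylated a plate-bound biotinylated 15-mer peptide for 20 min at room temperature; detection by time-resolved fluorescence.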

[2] = target: baculovirus-expressed ALK (Homo sapiens, UniProt Q9UM73); assay: ALK kinase inhibition, TRF/ELISA; format: biochemical; conditions: read-out: ALK Potency
Chain of baculovirus-expressed ALK (Q9UM73 19-1620): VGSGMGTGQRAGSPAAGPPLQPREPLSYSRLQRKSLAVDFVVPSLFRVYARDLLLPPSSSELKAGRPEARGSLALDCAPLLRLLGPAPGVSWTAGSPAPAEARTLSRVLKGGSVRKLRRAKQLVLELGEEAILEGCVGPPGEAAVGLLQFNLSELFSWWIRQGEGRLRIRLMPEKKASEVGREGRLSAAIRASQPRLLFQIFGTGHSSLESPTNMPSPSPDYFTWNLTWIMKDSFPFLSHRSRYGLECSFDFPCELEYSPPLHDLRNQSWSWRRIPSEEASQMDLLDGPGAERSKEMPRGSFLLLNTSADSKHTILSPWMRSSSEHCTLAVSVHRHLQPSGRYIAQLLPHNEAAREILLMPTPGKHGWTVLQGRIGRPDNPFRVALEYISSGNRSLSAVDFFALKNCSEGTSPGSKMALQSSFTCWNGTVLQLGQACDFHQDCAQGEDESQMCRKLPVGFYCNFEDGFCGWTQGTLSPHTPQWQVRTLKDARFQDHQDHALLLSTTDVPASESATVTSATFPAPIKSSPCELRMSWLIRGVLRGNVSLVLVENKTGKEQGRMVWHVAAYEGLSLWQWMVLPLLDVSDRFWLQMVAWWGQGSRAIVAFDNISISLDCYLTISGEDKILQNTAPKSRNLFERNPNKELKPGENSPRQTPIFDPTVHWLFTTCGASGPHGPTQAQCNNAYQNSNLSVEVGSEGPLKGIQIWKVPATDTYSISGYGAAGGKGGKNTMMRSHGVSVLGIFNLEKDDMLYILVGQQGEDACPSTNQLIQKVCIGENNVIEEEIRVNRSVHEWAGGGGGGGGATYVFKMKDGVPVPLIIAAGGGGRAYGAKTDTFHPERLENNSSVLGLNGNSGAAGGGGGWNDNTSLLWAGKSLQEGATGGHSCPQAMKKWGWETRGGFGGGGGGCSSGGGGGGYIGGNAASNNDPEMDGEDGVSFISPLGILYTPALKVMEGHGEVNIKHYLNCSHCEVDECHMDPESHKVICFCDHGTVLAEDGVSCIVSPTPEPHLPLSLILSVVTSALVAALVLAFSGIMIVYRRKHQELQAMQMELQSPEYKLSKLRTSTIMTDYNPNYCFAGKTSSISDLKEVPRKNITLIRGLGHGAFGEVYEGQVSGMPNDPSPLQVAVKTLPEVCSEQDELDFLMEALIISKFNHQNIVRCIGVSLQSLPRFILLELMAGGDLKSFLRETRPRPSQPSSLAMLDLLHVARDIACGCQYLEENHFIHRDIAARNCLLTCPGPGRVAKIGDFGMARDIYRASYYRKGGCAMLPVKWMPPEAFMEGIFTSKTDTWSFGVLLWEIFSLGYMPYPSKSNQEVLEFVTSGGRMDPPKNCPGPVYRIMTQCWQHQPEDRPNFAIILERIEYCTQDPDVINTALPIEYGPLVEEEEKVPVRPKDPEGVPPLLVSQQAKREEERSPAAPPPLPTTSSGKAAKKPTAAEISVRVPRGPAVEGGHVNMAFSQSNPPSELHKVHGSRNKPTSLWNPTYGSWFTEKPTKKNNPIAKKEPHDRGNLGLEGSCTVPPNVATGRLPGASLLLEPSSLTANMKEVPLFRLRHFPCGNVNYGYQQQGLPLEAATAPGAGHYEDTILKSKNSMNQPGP
Outline: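 Eu-PT66 anti-phosphotyrosine TRF read-out measured phosphorylation of plate-bound GST-PLC-γ (coated at 10 μg/mL). The phosphorylation was driven by 30 ng/mL ALK for 15 minutes at 37° C.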

Chain of baculovirus-expressed JAK2 kinase (O60674 whole entry): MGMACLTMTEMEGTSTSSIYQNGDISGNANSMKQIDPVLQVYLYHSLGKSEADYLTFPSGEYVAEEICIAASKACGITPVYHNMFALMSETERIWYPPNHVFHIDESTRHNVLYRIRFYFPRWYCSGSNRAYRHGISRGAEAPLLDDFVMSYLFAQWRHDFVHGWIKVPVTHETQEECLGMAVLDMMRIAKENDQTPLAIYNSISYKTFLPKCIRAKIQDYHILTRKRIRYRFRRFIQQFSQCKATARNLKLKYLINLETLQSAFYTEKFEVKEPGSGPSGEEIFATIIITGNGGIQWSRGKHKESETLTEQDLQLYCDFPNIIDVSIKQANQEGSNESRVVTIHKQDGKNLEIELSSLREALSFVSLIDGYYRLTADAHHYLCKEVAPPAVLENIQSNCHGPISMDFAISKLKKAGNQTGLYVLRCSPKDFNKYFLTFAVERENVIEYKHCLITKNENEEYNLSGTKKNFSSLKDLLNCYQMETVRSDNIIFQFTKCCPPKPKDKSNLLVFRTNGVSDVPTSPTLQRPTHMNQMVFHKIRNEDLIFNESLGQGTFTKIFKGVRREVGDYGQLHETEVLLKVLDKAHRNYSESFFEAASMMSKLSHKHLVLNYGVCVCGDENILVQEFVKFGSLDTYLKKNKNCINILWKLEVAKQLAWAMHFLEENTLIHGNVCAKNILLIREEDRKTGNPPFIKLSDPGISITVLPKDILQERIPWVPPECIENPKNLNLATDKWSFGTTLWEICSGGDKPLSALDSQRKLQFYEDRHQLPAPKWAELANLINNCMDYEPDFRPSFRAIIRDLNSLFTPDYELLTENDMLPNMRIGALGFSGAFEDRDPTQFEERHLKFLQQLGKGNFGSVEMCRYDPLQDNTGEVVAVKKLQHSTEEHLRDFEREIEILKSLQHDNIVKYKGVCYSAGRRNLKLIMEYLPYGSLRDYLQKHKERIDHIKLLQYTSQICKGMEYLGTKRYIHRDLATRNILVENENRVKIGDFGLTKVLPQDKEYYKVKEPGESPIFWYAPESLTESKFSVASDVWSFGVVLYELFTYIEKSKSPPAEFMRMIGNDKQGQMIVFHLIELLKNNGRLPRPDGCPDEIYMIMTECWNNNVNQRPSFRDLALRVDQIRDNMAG

SMILES | IC50 [1] [µM] | melting point [°C] | IC50 [2] [µM]
NC(=O)[C@@H]1[C@H](Nc2c(Br)cnc3[nH]c(-c4ccc(N5CCOCC5)cc4)nc23)[C@H]2C=C[C@@H]1C2 [Compound LXXIX, (1S,2S,3R,4R)-3-[6-Bromo-2-(4-morpholin-4-yl-phenyl)-3H-imidazo[4,5-b]pyridin-7-ylamino]-bicyclo[2.2.1]hept-5-ene-2-carboxylic acid amide] | < 0.1 | 283 to 284 | 
COc1cc(C2CCN(C)CC2)ccc1-c1nc2c(N[C@H]3[C@@H](C(N)=O)[C@@H]4C=C[C@H]3C4)c(Cl)cnc2[nH]1 [Compound CXVII, (1S,2S,3R,4R)-3-{6-Chloro-2-[2-methoxy-4-(1-methyl-piperidin-4-yl)-phenyl]-3H-imidazo[4,5-b]pyridin-7-ylamino}-bicyclo[2.2.1]hept-5-ene-2-carboxylic acid amide] | < 0.1 | 232 to 235 | < 0.1
CC(O)CN1CCN(C(=O)c2cccc(-c3nc4c(N[C@H]5[C@@H](C(N)=O)[C@@H]6C=C[C@H]5C6)c(Cl)cnc4[nH]3)c2)CC1 (stereo partly drawn) [Compound CCXXIII, (1S,2S,3R,4R)-3-(6-chloro-2-(3-(4-(2-hydroxypropyl)piperazine-1-carbonyl)phenyl)-3H-imidazo[4,5-b]pyridine-7-ylamino)pyridin[2.2.1]hept-5-ene-2-carboxamide] | < 0.1 | 183 | 0.1 to 1
CC(O)CN1CCN(C(=O)c2ccc(-c3nc4c(N[C@H]5[C@@H](C(N)=O)[C@@H]6C=C[C@H]5C6)c(Cl)cnc4[nH]3)cc2)CC1 (stereo partly drawn) [Compound CCXXIV, (1S,2S,3R,4R)-3-(6-chloro-2-(4-(4-(2-hydroxypropyl)piperazine-1-carbonyl)phenyl)-3H-imidazo[4,5-b]pyridine-7-ylamino)pyridin[2.2.1]hept-5-ene-2-carboxamide] | < 0.1 | 224 | < 0.1
NC(=O)[C@@H]1[C@H](Nc2c(Br)cnc3[nH]c(-c4cncnc4)nc23)[C@H]2C=C[C@@H]1C2 [Compound CVII, (1S,2S,3R,4R)-3-(6-Bromo-2-pyrimidin-5-yl-3H-imidazo[4,5-b]pyridin-7-ylamino)-bicyclo[2.2.1]hept-5-ene-2-carboxylic acid amide] | < 0.1 | > 300 | 0.1 to 1
NC(=O)[C@@H]1[C@H](Nc2c(Br)cnc3[nH]c(-c4ccccc4-n4cccn4)nc23)[C@H]2C=C[C@@H]1C2 [Compound CIV, (1S,2S,3R,4R)-3-[6-Bromo-2-(2-pyrazol-1-yl-phenyl)-3H-imidazo[4,5-b]pyridin-7-ylamino]-bicyclo[2.2.1]hept-5-ene-2-carboxylic acid amide] | 0.1 to 1 | 120 | 1 to 10
COc1ncccc1-c1nc2c(N[C@H]3[C@@H](C(N)=O)[C@@H]4C=C[C@H]3C4)c(Br)cnc2[nH]1 [Compound CI, (1S,2S,3R,4R)-3-[6-Bromo-2-(2-methoxy-pyridin-3-yl)-3H-imidazo[4,5-b]pyridin-7-ylamino]-bicyclo[2.2.1]hept-5-ene-2-carboxylic acid amide] | < 0.1 | 201 | < 0.1
NC(=O)[C@@H]1[C@H](Nc2c(Cl)cnc3[nH]c(-c4cccc(C(=O)NC(CO)C(=O)O)c4)nc23)[C@H]2C=C[C@@H]1C2 (stereo partly drawn) [Compound CCXXIX, 2-(3-(7-((1R,2R,3S,4S)-3-carbamoylbicyclo(2.2.1)hept-5-en-2-ylamino)-6-chloro-3H-imidazo[4,5-b]pyridine-2-yl)benzamido)-3-hydroxypropanoic acid] | < 0.1 | 243 | 1 to 10
CN1CCN(Cc2ccc(-c3nc4c(N[C@H]5[C@@H](C(N)=O)[C@@H]6C=C[C@H]5C6)c(Br)cnc4[nH]3)cc2)CC1 [Compound C] | < 0.1 | 208 to 209 | < 0.1
COc1cc(CN2CCN(C(C)=O)CC2)ccc1-c1nc2c(N[C@H]3[C@@H](C(N)=O)[C@@H]4C=C[C@H]3C4)c(Cl)cnc2[nH]1 [Compound LI] | < 0.1 | 109 to 113 | < 0.1
CN1CCN(c2ccc(-c3nc4c(N[C@H]5[C@@H](C(N)=O)[C@@H]6C=C[C@H]5C6)c(Br)cnc4[nH]3)cc2)CC1 [Compound LXXVIII, (1S,2S,3R,4R)-3-{6-Bromo-2-[4-(4-methyl-piperazin-1-yl)-phenyl]-3H-imidazo[4,5-b]pyridin-7-ylamino}-bicyclo[2.2.1]hept-5-ene-2-carboxylic acid amide] | < 0.1 | 215 to 218 | 
CN1CCC(Oc2cccc(-c3nc4c(N[C@H]5[C@@H](C(N)=O)[C@@H]6C=C[C@H]5C6)c(Cl)cnc4[nH]3)c2)CC1 [Compound CCXLVIII, (1S,2S,3R,4R)-3-(6-chloro-2-(3-(1-methylpiperidin-4-yloxy)phenyl)-3H-imidazo[4,5-b]pyridin-7-ylamino)bicyclo[2.2.1]hept-5-ene-2-carboxamide] | < 0.1 |  | < 0.1
O=C(NC1CC1)[C@@H]1[C@H](Nc2c(Cl)cnc3[nH]c(-c4sc(N5CC[C@@H](O)C5)nc4Cl)nc23)[C@H]2C=C[C@@H]1C2 [Compound CLXXIII, (1S,2S,3R,4R)-3-[6-Chloro-2-[4-chloro-2-((R)-3-hydroxy-pyrrolidin-1-yl)-thiazol-5-yl]-3H-imidazo[4,5-b]pyridin-7-ylamino]-bicyclo[2.2.1]hept-5-ene-2-carboxylic acid cyclopropylamide] | 0.1 to 1 |  | < 0.1
NC(=O)[C@@H]1[C@H](Nc2c(Br)cnc3[nH]c(-c4sc(N5CCOCC5)nc4Cl)nc23)[C@H]2C=C[C@@H]1C2 [Compound CLXI, (1S,2S,3R,4R)-3-[6-Bromo-2-(4-chloro-2-morpholin-4-yl-thiazol-5-yl)-3H-imidazo[4,5-b]pyridin-7-ylamino]-bicyclo[2.2.1]hept-5-ene-2-carboxylic acid amide] | < 0.1 |  | < 0.1
C[C@@H](O)CN1CCC(n2cc(-c3nc4c(N[C@H]5[C@@H](C(N)=O)[C@@H]6C=C[C@H]5C6)c(Cl)cnc4[nH]3)cn2)CC1 [Compound LVIII, (1S,2S,3R,4R)-3-(6-Chloro-2-{1-[1-((R)-2-hydroxypropyl)-piperidin-4-yl]-1H-pyrazol-4-yl}-3H-imidazo[4,5-b]pyridine-7-ylamino)-bicyclo[2.2.1]hept-5-ene-2-carboxylic acid amide] | < 0.1 |  | < 0.1

Now from value to compound:

IC50 [1] [µM] | melting point [°C] | IC50 [2] [µM] | SMILES
1 to 10 | 185 to 195 | 1 to 10 | COc1cc(N2CCN(C)CC2)ccc1-c1nc2c(N[C@H]3[C@@H](C(N)=O)[C@@H]4C=C[C@H]3C4)ccnc2[nH]1 [Compound XCV, (1S,2S,3R,4R)-3-{2-[2-Methoxy-4-(4-methyl-piperazin-1-yl)-phenyl]-3H-imidazo[4,5-b]pyridin-7-ylamino}-bicyclo[2.2.1]hept-5-ene-2-carboxylic acid amide]
> 10 | 185 to 190 | > 10 | COc1cc(N(C)C)ccc1-c1nc2c(N[C@H]3[C@@H](C(N)=O)[C@@H]4C=C[C@H]3C4)ccnc2[nH]1 [Compound XCIII, (1S,2S,3R,4R)-3-[2-(4-Dimethylamino-2-methoxy-phenyl)-3H-imidazo[4,5-b]pyridin-7-ylamino]-bicyclo[2.2.1]hept-5-ene-2-carboxylic acid amide]
< 0.1 | 185 to 195 | < 0.1 | COc1cc(N2CCC(N3CCN(C)CC3)CC2)ccc1-c1nc2c(N[C@H]3[C@@H](C(N)=O)[C@@H]4C=C[C@H]3C4)c(Br)cnc2[nH]1 [Compound XCVIII, (1S,2S,3R,4R)-3-(6-Bromo-2-{2-methoxy-4-[4-(4-methyl-piperazin-1-yl)-piperidin-1-yl]-phenyl}-3H-imidazo[4,5-b]pyridin-7-ylamino)-bicyclo[2.2.1]hept-5-ene-2-carboxylic acid amide]
0.1 to 1 | 186 to 187 | 1 to 10 | COc1ccc(-c2nc3c(N[C@H]4[C@@H](C(N)=O)[C@@H]5C=C[C@H]4C5)c(Cl)cnc3[nH]2)c(C2CCN(C[C@@H](C)O)CC2)c1 [Compound XXXI]
< 0.1 | 184 to 185 | < 0.1 | NC(=O)[C@@H]1[C@H](Nc2c(Br)cnc3[nH]c(-c4cccc(CN5CCOCC5)c4)nc23)[C@H]2C=C[C@@H]1C2 [Compound LXXXI, (1S,2S,3R,4R)-3-[6-Bromo-2-(3-morpholin-4-ylmethyl-phenyl)-3H-imidazo[4,5-b]pyridin-7-ylamino]-bicyclo[2.2.1]hept-5-ene-2-carboxylic acid amide]
 | 217 to 219 |  | NC(=O)[C@@H]1[C@H](Nc2c(Br)cnc3[nH]c(-c4ccc(CN5CCOCC5)cc4)nc23)[C@H]2C=C[C@@H]1C2 (as salt: sodium) [Compound LXXX, (1S,2S,3R,4R)-3-[6-Bromo-2-(4-morpholin-4-ylmethyl-phenyl)-3H-imidazo[4,5-b]pyridin-7-ylamino]-bicyclo[2.2.1]hept-5-ene-2-carboxylic acid amide]
< 0.1 |  | < 0.1 | CN1CCN(Cc2ccc(-c3nc4c(N[C@H]5[C@@H](C(N)=O)[C@@H]6C=C[C@H]5C6)c(Cl)cnc4[nH]3)cc2)CC1 [Compound XX, (1S,2S,3R,4R)-3-{6-Chloro-2-[4-(4-methyl-piperazin-1-ylmethyl)-phenyl]-3H-imidazo[4,5-b]pyridin-7-ylamino}-bicyclo[2.2.1]hept-5-ene-2-carboxylic acid amide; compound with trifluoro-acetic acid bis trifluoroacetic acid salt]
